Drawing on article doi:10.1101/2023.03.24.534094v2 (biorxiv, 2023), this text covers ΔTm for five compounds.

Test in all cases: biochemical
The target in one experiment is T1, BMPR2 (Homo sapiens, UniProt Q13873).
T1 sequence (Q13873 1-1038): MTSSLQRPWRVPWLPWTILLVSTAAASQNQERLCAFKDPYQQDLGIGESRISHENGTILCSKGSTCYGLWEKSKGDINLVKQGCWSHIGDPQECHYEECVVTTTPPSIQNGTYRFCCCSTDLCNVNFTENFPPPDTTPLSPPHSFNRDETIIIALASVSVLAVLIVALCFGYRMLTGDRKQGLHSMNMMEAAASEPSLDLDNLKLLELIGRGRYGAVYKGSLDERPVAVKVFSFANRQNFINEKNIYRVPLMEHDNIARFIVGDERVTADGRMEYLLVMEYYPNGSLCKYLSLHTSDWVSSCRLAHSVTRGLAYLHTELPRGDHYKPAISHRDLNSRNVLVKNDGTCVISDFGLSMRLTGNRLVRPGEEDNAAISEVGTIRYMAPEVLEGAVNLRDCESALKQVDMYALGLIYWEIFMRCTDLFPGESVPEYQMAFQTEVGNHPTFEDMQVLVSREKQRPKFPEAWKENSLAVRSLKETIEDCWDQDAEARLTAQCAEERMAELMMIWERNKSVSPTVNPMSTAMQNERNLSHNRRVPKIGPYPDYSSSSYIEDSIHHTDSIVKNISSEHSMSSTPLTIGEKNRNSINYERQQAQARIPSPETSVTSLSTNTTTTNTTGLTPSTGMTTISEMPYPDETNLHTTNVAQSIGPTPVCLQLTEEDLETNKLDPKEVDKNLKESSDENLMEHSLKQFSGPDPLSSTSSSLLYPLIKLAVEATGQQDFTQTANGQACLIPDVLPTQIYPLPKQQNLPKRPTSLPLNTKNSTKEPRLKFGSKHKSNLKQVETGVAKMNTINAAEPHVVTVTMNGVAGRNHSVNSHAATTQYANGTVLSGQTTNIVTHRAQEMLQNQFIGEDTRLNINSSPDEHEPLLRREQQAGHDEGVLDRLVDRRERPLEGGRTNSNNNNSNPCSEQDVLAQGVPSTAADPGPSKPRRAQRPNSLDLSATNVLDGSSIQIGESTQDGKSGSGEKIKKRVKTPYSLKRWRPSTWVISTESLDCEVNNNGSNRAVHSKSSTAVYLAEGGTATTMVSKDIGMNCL

For a further experiment, the target named is T2, DMPK1 (Homo sapiens, UniProt Q09013).
T2 sequence (Q09013 1-629): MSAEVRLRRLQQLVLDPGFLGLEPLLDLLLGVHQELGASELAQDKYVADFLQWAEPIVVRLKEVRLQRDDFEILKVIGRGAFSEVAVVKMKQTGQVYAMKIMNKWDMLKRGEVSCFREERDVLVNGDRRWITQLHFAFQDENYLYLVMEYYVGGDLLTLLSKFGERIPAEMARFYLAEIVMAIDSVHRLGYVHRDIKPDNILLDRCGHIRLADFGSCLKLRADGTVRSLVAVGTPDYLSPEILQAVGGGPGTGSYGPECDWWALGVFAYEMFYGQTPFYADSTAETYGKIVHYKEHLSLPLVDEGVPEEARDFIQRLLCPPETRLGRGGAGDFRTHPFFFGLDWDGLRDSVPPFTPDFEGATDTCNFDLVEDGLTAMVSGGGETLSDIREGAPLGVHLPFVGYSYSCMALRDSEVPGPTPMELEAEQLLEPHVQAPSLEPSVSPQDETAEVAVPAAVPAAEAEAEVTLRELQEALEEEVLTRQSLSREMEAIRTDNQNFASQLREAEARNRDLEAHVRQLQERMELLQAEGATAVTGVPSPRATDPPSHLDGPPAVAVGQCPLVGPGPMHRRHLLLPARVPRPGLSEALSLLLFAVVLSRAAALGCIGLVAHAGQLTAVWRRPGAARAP

The next experiment addresses GSK3B (Homo sapiens, UniProt P49841).
Another experiment has as its target MAPKAPK2 (Homo sapiens, UniProt P49137).
A further experiment has as its target T3, TTK (Homo sapiens, UniProt P33981).
T3 sequence (P33981 1-857): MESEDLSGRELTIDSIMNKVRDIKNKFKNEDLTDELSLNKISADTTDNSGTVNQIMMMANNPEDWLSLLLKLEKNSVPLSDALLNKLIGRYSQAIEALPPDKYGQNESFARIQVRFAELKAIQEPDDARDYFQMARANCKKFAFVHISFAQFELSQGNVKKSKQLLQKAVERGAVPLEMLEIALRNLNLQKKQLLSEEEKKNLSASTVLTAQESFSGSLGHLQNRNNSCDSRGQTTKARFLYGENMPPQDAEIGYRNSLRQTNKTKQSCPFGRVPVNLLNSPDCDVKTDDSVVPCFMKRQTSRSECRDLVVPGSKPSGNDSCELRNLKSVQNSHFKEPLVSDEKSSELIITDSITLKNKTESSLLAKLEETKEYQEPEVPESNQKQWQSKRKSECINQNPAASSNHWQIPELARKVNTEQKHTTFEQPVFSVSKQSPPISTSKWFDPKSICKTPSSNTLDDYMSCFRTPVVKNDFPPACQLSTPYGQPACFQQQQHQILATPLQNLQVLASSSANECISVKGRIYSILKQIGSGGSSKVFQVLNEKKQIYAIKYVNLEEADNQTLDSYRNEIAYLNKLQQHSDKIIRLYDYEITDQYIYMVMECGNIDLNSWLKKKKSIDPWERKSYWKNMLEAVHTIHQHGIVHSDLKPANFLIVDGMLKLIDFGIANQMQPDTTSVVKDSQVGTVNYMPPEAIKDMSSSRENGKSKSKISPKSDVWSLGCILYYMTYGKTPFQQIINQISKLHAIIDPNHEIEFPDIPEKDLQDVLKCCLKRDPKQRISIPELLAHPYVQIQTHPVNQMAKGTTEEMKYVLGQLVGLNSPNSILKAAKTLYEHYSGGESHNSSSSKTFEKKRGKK

Read-outs that look alike come from different tables or passages of the source.

Sequence of MAPKAPK2 (P49137 whole entry): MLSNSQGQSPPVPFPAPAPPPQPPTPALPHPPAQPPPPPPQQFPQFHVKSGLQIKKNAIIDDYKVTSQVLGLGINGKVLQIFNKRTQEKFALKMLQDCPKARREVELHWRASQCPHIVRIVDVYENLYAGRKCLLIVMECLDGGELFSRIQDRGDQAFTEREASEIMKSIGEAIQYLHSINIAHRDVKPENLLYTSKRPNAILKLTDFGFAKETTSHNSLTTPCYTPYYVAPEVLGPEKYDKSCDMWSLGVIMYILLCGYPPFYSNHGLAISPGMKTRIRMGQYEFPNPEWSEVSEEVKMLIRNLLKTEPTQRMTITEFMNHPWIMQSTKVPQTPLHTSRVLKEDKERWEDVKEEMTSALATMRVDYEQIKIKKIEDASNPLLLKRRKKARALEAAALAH
Sequence of GSK3B (P49841 whole entry): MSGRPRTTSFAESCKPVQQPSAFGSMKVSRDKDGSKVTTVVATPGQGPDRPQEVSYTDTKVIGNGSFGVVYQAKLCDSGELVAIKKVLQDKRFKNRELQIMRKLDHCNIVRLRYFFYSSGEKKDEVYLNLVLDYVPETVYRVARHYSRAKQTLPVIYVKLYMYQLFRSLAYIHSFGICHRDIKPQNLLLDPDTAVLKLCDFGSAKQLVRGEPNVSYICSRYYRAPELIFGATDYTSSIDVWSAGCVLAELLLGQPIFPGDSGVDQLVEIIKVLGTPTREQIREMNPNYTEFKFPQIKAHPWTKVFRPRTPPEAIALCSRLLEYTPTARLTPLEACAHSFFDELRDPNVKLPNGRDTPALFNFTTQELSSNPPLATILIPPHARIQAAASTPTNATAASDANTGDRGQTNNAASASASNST

As to `CNc1ncc2cc(-c3cc(C(F)(F)F)ccc3Cl)c(=O)n(CCCCN)c2n1` [compound 9, 8-(4-Aminobutyl)-6-(2-chloro-5-(trifluoromethyl)phenyl)-2-(methylamino)pyrido[2,3-d]pyrimidin-7(8H)-one], the ΔTm at 10 µM at BMPR2 (read-out: dTm 9) is 0.1 °C; on DMPK1 (read-out: dTm 9), 1.4 °C; on GSK3B (read-out: dTm 9) it was 0.8 °C; at MAPKAPK2 (read-out: dTm 9) it was -0.1 °C; at TTK (read-out: dTm 9), -0.5 °C.
Take `CNc1ncc2cc(-c3cc(Cl)ccc3Cl)c(=O)n(CCCCN)c2n1` [compound 8, 8-(4-Aminobutyl)-6-(2,5-dichlorophenyl)-2-(methylamino)pyrido[2,3-d]pyrimidin-7(8H)-one]: the ΔTm at 10 µM was determined as 0.2 °C at BMPR2 (read-out: dTm 8); 1.3 °C at DMPK1 (read-out: dTm 8); 1 °C at GSK3B (read-out: dTm 8); 0 °C at MAPKAPK2 (read-out: dTm 8); 0.5 °C at TTK (read-out: dTm 8).
With `CNc1ncc2cc(-c3cc(Br)ccc3Br)c(=O)n(CCCCN)c2n1` [compound 11, 8-(4-Aminobutyl)-6-(2,5-dibromophenyl)-2-(methylamino)pyrido[2,3-d]pyrimidin-7(8H)-one], the ΔTm at 10 µM at BMPR2 (read-out: dTm 11) came out at 0 °C; on DMPK1 (read-out: dTm 11), 1.7 °C; at GSK3B (read-out: dTm 11), 0.8 °C; at MAPKAPK2 (read-out: dTm 11), 0 °C; at TTK (read-out: dTm 11), 0.2 °C.
Consider `CNc1ncc2cc(-c3cc(F)c(-c4cccc(C)n4)cc3F)c(=O)n(CCCCN)c2n1` [compound 12, 8-(4-Aminobutyl)-6-(2,5-difluoro-4-(6-methylpyridin-2-yl)phenyl)-2-(methylamino)pyrido[2,3-d]pyrimidin-7(8H)-one], for which the ΔTm at 10 µM at BMPR2 (read-out: dTm 12) is -0.2 °C; at DMPK1 (read-out: dTm 12) it was -0.1 °C; at GSK3B (read-out: dTm 12), 1.7 °C; on MAPKAPK2 (read-out: dTm 12), -0.3 °C; on TTK (read-out: dTm 12), -0.7 °C.
For `CNc1ncc2cc(-c3cc(Cl)ccc3Br)c(=O)n(CCCCN)c2n1` [compound 10, 8-(4-Aminobutyl)-6-(2-bromo-5-chlorophenyl)-2-(methylamino)pyrido[2,3-d]pyrimidin-7(8H)-one], the ΔTm at 10 µM on BMPR2 (read-out: dTm 10) was 0 °C; at DMPK1 (read-out: dTm 10), 1.8 °C; on GSK3B (read-out: dTm 10) it was 0.8 °C; on MAPKAPK2 (read-out: dTm 10), 0 °C; at TTK (read-out: dTm 10), 0.5 °C.
